Consider 8 compounds from PubChem BioAssay (NCI).

Each structure is given as a SMILES string.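 48-hour exposure; five concentrations; linearly interpolated endpoints. Here, GI50 denotes the concentration required for 50% inhibition of growth. TGI denotes the concentration required for complete inhibition of growth.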

Common to all, as to assay: inhibition of tumour cell growth, NCI panel, 48 h
In experiment [1] the test system is CAKI-1 renal.
Experiment [2] deals with KM12 colon.
For experiment [3], the system named is LOX IMVI melanoma.
In experiment [4] the test system is MALME-3M melanoma.
Experiment [5] has as its system MDA-MB-435.
Experiment [6] relates to MOLT-4 leukemia.
Experiment [7] deals with NCI/ADR-RES ovarian.
In experiment [8] the test system is RXF 393 renal.
The subject of experiment [9] is SF-268 CNS.
Experiment [10] relates to TK-10 renal.

For the compound `CCOC(=O)c1ccc2c(c1)Cc1cc([N+](=O)[O-])ccc1-2`, the TGI is over 100 µM in experiment [1]; over 100 µM in [2]; over 100 µM in [3]; over 100 µM in [4]; over 100 µM in experiment [5]; 51.6 µM in [6]. The TGI was 99.4 µM in experiment [7], 55.5 µM in experiment [8], 88 µM in experiment [9] and 86.5 µM in experiment [10].

For the compound `CCOC(=O)C1=C(C)N=c2s/c(=C\c3ccccc3O)c(=O)n2C1c1ccc(OC)c2ccccc12` (stereo not given), the GI50 was 10 µM in [1]; 9.66 µM in experiment [2]; 2.44 µM in experiment [3]; 4.14 µM in [4]; 13.1 µM in experiment [5]; 15.5 µM in [6]. Besides, the GI50 in experiment [7] was 7.92 µM; in experiment [8] it was 4.3 µM; in experiment [9], 6.23 µM; in [10], 11 µM. In addition, the TGI is 25.9 µM in [1]; over 100 µM in [2]; 5.65 µM in experiment [3]; 19 µM in experiment [4]; over 100 µM in [5]; over 100 µM in experiment [6]. Moreover, the TGI in experiment [7] stood at 43.5 µM; in [8], 17.3 µM; in experiment [9], 25.5 µM; in [10] it was 23.3 µM.

As for `CC12OOC(c3ccccc31)c1c2ccc2ccccc12` (stereo not given), the TGI in [1] stood at 4.64 µM; in experiment [2] it was 7.43 µM; in experiment [3] it was 6.41 µM; in experiment [4], 5.79 µM; in experiment [5], 18.2 µM; in [6], 3.42 µM. Besides, the TGI in experiment [7] was found to be 24.1 µM; in experiment [8], 7.53 µM; in experiment [9], 28 µM; in experiment [10] it was 22.3 µM.

Regarding `O=C(c1ccco1)c1nc2cc(C(F)(F)F)ccc2nc1C(F)(F)F`, the GI50 in experiment [1], in [2], in [3], in [4], in experiment [5] and in [6] was over 100 µM throughout. In addition, the GI50 in experiment [7], in experiment [8], in [9] and in experiment [10] was over 100 µM each time. The TGI in experiment [1], in experiment [2], in [3], in experiment [4], in experiment [5] and in experiment [6] was over 100 µM in each case. Moreover, the TGI in [7], in experiment [8], in [9] and in experiment [10] was over 100 µM in each case.

For the compound `C=C(C)C1CC/C(C)=C/CCC2(C)OC2CC/C(CO)=C\C1O` (stereo not given), the TGI in experiment [1], in experiment [2], in [3], in experiment [4], in experiment [5] and in [6] was over 100 µM throughout. In addition, the TGI in [7], in [8], in [9] and in [10] was over 100 µM throughout.

In the case of `Cc1cc(Nc2ccc(OCc3ccccc3)cc2)nc2cc(O)ccc12`, the GI50 in experiment [1] was 4.88 µM; in experiment [2], 3.1 µM; in experiment [3] it was 2.47 µM; in experiment [4], 3.88 µM; in experiment [5], 5.49 µM; in experiment [6], 3.37 µM. Moreover, the GI50 in experiment [7] was 5.93 µM; in [8], 2.95 µM; in experiment [9], 11.9 µM; in experiment [10], 14.5 µM. The TGI was found to be 18.3 µM in experiment [1]; 13.3 µM in [2]; 6.47 µM in experiment [3]; 11.2 µM in experiment [4]; 17.9 µM in experiment [5]; 17.4 µM in experiment [6]. The TGI in experiment [7] is 19.8 µM; in [8] it was 12.1 µM; in experiment [9], 26.4 µM; in [10] it was 29.2 µM.

`CCCCCCCC/C=C/CCCCCCCC1=NC(C)(C)CN1CC(C)O` (stereo not given): the GI50 in experiment [1] is 1.53 µM; in experiment [2] it was 1.99 µM; in [3], 1.52 µM; in [4], 1.97 µM; in [5] it was 1.77 µM; in [6], 2.05 µM. Also, the GI50 in experiment [7] is 2.68 µM; in experiment [8], 1.53 µM; in experiment [9], 1.73 µM; in experiment [10] it was 2.73 µM. The TGI in [1] was found to be 3 µM; in experiment [2], 3.98 µM; in experiment [3] it was 2.88 µM; in experiment [4], 4.67 µM; in experiment [5], 3.45 µM; in [6] it was 4.28 µM. The TGI in [7] came to 6.9 µM; in experiment [8], 3.39 µM; in experiment [9], 3.16 µM; in experiment [10], 7.49 µM.

Turning to `CN1CCC(COc2cnc(-c3cccc(Cn4nc(-c5cccc(C#N)c5)ccc4=O)c3)nc2)CC1`, the GI50 is 3.15 µM in experiment [1]; 4.36 µM in experiment [2]; 1.93 µM in experiment [3]; 1.83 µM in [4]; 2.74 µM in [5]; 2.53 µM in [6]. Further, the GI50 in experiment [7] is 7.41 µM; in [8], 1.49 µM; in [9] it was 3.81 µM; in experiment [10], 2.65 µM. Besides, the TGI came to 13.8 µM in experiment [1]; 16.5 µM in [2]; 4.09 µM in experiment [3]; 3.63 µM in experiment [4]; 9.47 µM in [5]; 6.62 µM in experiment [6]. In addition, the TGI in [7] is 28.1 µM; in [8] it was 3.08 µM; in [9], 16.4 µM; in [10], 6.15 µM.
